Results published in patent US20210213137A1, “COMPOSITIONS TO TREAT ULTRAVIOLET (UV)-INDUCED SKIN INJURY” (Mayo Foundation for Medical Education and Research, priority 2016, published 2021).

Assays:
[1] = test system: primary melanoma tumor; experiment: Mouse model of melanoma with chronic UVB exposure; assay type: in vivo, mice; conditions: summary statement
Experimental: FIG. 3A. […] For Tumor+UV group * p<0.05, ** p<0.01 compared to tumor only, § p<0.05 compared to Tumor+UV+Tx group. No significant difference between tumor only and tumor+UV+Tx group at all time points. Data based on 3 experiments (n=5). FIG. 3B. […] FIG. 3C. Quantification of vessel density via CD31 staining, a marker of vessels.
FIG. 4A. Schematic diagram of experimental setup corresponding to FIG. 3A. All mice were injected with tumor on their right flank on Day 0. Luciferase imaging was done on day 5. Based on luciferase imaging data, mice were assigned to different groups (no UV—tumor only, tumor+UV, and tumor+UV+Tx). Starting on day 6, 1×1 cm area on the tumor was exposed to UVB. Vehicle or treatment was applied 2 hours post UVB exposure. A subset of the mice (n=4) was sacrificed on day 6, 10, 14 and 19 for analysis. FIG. 4B. Survival curve of mice in a separate analogous tumor study to the one represented in FIG. 3A.

[2] = test system: mice skin; experiment: UVB-induced skin injury in mice (chronic and acute UVB exposure); assay type: in vivo; conditions: topical administration; summary statement
Experimental: (§1) FIG. 2A. […] FIG. 2B. […] 1×1 cm are on the right flank of the mice were exposed to UVB 3 times/week for 3 weeks (n=5). Either vehicle or GNP-VEGF antibody was applied to the area 2 hours after exposure. FIG. 2C. […] All treatments were applied 2 hours post-UVB exposure. Data representative of 2 experiments, n=5. Ear thickness was measured 2 days after UVB exposure. Avastin® and 2C3 are VEGF antibodies. FIG. 2D. Topical administration of GNP-VEGF antibody or small molecular inhibitor (SMI) of VEGF signaling, sorafenib, reduces edema. All treatments were applied 2 hours post UVB exposure. Data representative of 2 experiments, n=5. Ear thickness was measured 2 days after UVB exposure.
Vascular endothelial growth factor (VEGF) was induced by UVB light and works concomitantly with ROS to induce the pathway, and was identified as an upstream regulator of the inflammation pathway.

[3] = test system: mouse ears; experiment: UVB-induced ear edema (ear thickness) in mice; assay type: in vivo
From the text: FIG. 1A. Timeline of the acute and chronic effects of UV-induced skin injury. FIG. 1B. Quantitative PCR was used to measure induction of VEGF transcript in mouse skin upon exposure to various doses of UVB (n=3 mice/group). FIG. 1C. Representative photographs of mouse ears two days after UVB exposure. UVB induces angiogenesis in the ear of mice. FIG. 1D. Systemic administration of VEGF antibody 2C3 reduces edema as shown by 50% decrease in ear thickness (p=0.0101, n=4).
as §1

| Molecule | melanoma tumor growth [1] | skin injury following UVB exposure [2] | acute effects of UV-induced skin damage ([3]; topical administration, mice) | edema (ear thickness) ([3]; topical, 2 hours post UVB exposure, ear thickness 2 days after UVB, n=5, FIG. 2D) |
| --- | --- | --- | --- | --- |
| bevacizumab [Avastin®] | prevented and/or reduced melanoma tumor growth | prevented and/or reduced skin injury |  |  |
| CNC(=O)c1cc(Oc2ccc(NC(=O)Nc3ccc(Cl)c(C(F)(F)F)c3)cc2)ccn1 [sorafenib] |  | prevented and/or reduced skin injury | inhibited the acute effects of UV-induced skin damage | reduces edema |
